We go through 28 molecules from PMC7587356, “High-Throughput Screening for Inhibitors of the SARS-CoV-2 Protease Using a FRET-Biosensor” (Molecules, 2020).

Counter-ions that a name gives are not always drawn. Like-named read-outs stand apart in the source and are kept apart here.

For this experiment, the target named is SARS-CoV-2 3CLpro (Severe acute respiratory syndrome coronavirus 2, UniProt P0DTD1). Briefly: biochemical. As to conditions: for inhibition at 5 µM: 4 h. More on the design: Replicate_1 / Replicate_2 / mean / mean (LOPAC_screen_w_protease): unit not given here. The experiment is classed as biochemical.
Where [1] appears, read: sheet LOPAC_screen_w_protease, primary screen of LOPAC1280 at 5 µM with protease, mean of the two replicates.
The mark [2] stands for this setting: sheet LOPAC_screen_w_protease, primary screen of LOPAC1280 at 5 µM with protease, replicate 1.
[3] abbreviates: sheet LOPAC_screen_w_protease, primary screen of LOPAC1280 at 5 µM with protease, replicate 2.
[4] abbreviates: sheet LOPAC_screen_w_protease, primary screen of LOPAC1280 at 5 µM with protease, mean of the two replicates, read-out: mean.
[5] abbreviates: sheet LOPAC_screen_w_protease, primary screen of LOPAC1280 at 5 µM with protease, replicate 1, read-out: Replicate_1.
Where [6] appears, read: sheet LOPAC_screen_w_protease, primary screen of LOPAC1280 at 5 µM with protease, replicate 2, read-out: Replicate_2.
[7] abbreviates: LOPAC1280 primary screen with protease, 5 µM compound, mean of the two replicates.
Where [8] appears, read: LOPAC1280 primary screen with protease, 5 µM compound, replicate 1.
[9] abbreviates: LOPAC1280 primary screen with protease, 5 µM compound, replicate 2.
The mark [10] stands for this setting: sheet LOPAC_screen_w_protease, primary screen with protease, compound at 5 µM, mean of two replicates, read-out: mean.
The mark [11] stands for this setting: sheet LOPAC_screen_w_protease, primary screen with protease, compound at 5 µM, replicate 1, read-out: Replicate_1.
Where [12] appears, read: sheet LOPAC_screen_w_protease, primary screen with protease, compound at 5 µM, replicate 2, read-out: Replicate_2.
The mark [13] stands for this setting: sheet LOPAC_screen_w_protease, primary screen with protease, compound at 5 µM, mean of two replicates.
Setting [14] is: sheet LOPAC_screen_w_protease, primary screen with protease, compound at 5 µM, replicate 1.
[15] abbreviates: sheet LOPAC_screen_w_protease, primary screen with protease, compound at 5 µM, replicate 2.
Setting [16] is: LOPAC1280 primary screen with protease, 5 µM compound, replicate 1, read-out: Replicate_1 (LOPAC_screen_w_protease).
The mark [17] stands for this setting: LOPAC1280 primary screen with protease, 5 µM compound, replicate 2, read-out: Replicate_2 (LOPAC_screen_w_protease).
Setting [18] is: read-out: Replicate_1 (LOPAC screen with protease).
Where [19] appears, read: read-out: Replicate_2 (LOPAC screen with protease).
Setting [20] is: read-out: mean (LOPAC screen with protease).
[21] abbreviates: LOPAC1280 primary screen with protease, 5 µM compound, mean of two replicates.

As for `O=c1c2ccccc2[nH]c(=S)n1CCN1CCC(=C(c2ccc(F)cc2)c2ccc(F)cc2)CC1` [Diacylglycerol Kinase Inhibitor II], the inhibition at 5 µM was -3.62% (sheet LOPAC_screen_w_protease, LOPAC1280 primary screen at 5 µM, with protease, mean of two replicates, read-out: mean); -4.63% (sheet LOPAC_screen_w_protease, LOPAC1280 primary screen at 5 µM, with protease, replicate 1, read-out: Replicate_1); -2.61% (sheet LOPAC_screen_w_protease, LOPAC1280 primary screen at 5 µM, with protease, replicate 2, read-out: Replicate_2).

In the case of `Cc1nc2sccn2c(=O)c1CCN1CCC(=C(c2ccccc2)c2ccc(F)cc2)CC1` [Diacylglycerol kinase inhibitor I], the mean under setting [1] came out at 3.623. The same molecule registered a Replicate_1 under setting [2] of 4.4123. Under setting [3], this molecule had a Replicate_2 of 2.833.

As for `CC1=NS(=O)(=O)c2cc(Cl)ccc2N1` [Diazoxide], the inhibition at 5 µM under setting [4] was 3.37%, the inhibition at 5 µM under setting [5] is 4.67% and the inhibition at 5 µM under setting [6] was found to be 2.07%.

With `O=C(O)Cc1ccccc1Nc1c(Cl)cccc1Cl` [Diclofenac sodium], the “mean (LOPAC_screen_w_protease)” value is reported as 1.426. In addition, the inhibition at 5 µM (read-out: Replicate_1 (LOPAC_screen_w_protease)) was determined as 3.59%. The inhibition at 5 µM (read-out: Replicate_2 (LOPAC_screen_w_protease)) is -0.743%.

Molecule `O=C(O)CN(CCN(CC(=O)O)CC(=O)O)CCN(CC(=O)O)CC(=O)O` [Diethylenetriaminepentaacetic acid] registered a mean under setting [1] of 3.2. In addition, the Replicate_1 under setting [2] is 5.3521. Under setting [3], this molecule had a Replicate_2 of 1.048.

Consider `Br.CO[C@H]1CC=C2CCN3CCC4=C(CC(=O)OC4)[C@]23C1` [Dihydro-beta-erythroidine hydrobromide], for which, under setting [7], the “mean (LOPAC_screen_w_protease)” value stood at 2.038. For the same molecule, the “Replicate_1 (LOPAC_screen_w_protease)” value under setting [8] stood at 1.621. Further, the “Replicate_2 (LOPAC_screen_w_protease)” value under setting [9] came to 2.454.

Regarding `COc1cc(CNC(=O)CCCCCCC(C)C)ccc1O` [Dihydrocapsaicin], the inhibition at 5 µM under setting [10] turned out to be 3.14%, the inhibition at 5 µM under setting [11] worked out at 4.91% and the inhibition at 5 µM under setting [12] amounted to 1.38%.

Molecule `CC(C)[C@@]1(NC(=O)[C@@H]2C[C@@H]3c4cccc5[nH]cc(c45)C[C@H]3N(C)C2)O[C@@]2(O)[C@@H]3CCCN3C(=O)[C@H](Cc3ccccc3)N2C1=O.CS(=O)(=O)O` [Dihydroergocristine methanesulfonate] gave a mean under setting [13] of 2.761. For the same molecule, the Replicate_1 under setting [14] is listed as 2.962. For the same molecule, the Replicate_2 under setting [15] amounted to 2.561.

With `CN1C[C@H](C(=O)N[C@]2(C)O[C@@]3(O)[C@@H]4CCCN4C(=O)[C@H](Cc4ccccc4)N3C2=O)C[C@@H]2c3cccc4[nH]cc(c34)C[C@H]21` [Dihydroergotamine methanesulfonate], the inhibition at 5 µM runs as follows: under setting [16], 2.09%; under setting [17], 1.52%. Also, under setting [7], the “mean (LOPAC_screen_w_protease)” value amounted to 1.805.

Consider `CC(C)[C@H]1CN[C@H](C(=O)O)[C@H]1CC(=O)O` [Dihydrokainic acid], for which, where the note is “sheet LOPAC_screen_w_protease, LOPAC1280 primary screen at 5 µM, with protease, mean of the two replicates”, the mean is given as 0.7305. In addition, the Replicate_1 (sheet LOPAC_screen_w_protease, LOPAC1280 primary screen at 5 µM, with protease, replicate 1) came to 1.689. For the setting “sheet LOPAC_screen_w_protease, LOPAC1280 primary screen at 5 µM, with protease, replicate 2”, this molecule displayed a Replicate_2 of -0.2284.

Molecule `C[C@@H]1O[C@@H](O[C@H]2C[C@@H](O)[C@]3(CO)[C@H]4[C@H](O)C[C@]5(C)[C@@H]([C@@H]6COC(=O)C6)CC[C@]5(O)[C@@H]4CC[C@]3(O)C2)[C@H](O)[C@H](O)[C@H]1O` [Dihydroouabain] showed a mean under setting [1] of 3.947. In addition, the Replicate_1 under setting [2] was determined as 5.984. Besides, under setting [3], the Replicate_2 came to 1.91.

As to `COc1cc(C(=O)OCCCN2CCCN(CCCOC(=O)c3cc(OC)c(OC)c(OC)c3)CC2)cc(OC)c1OC` [Dilazep hydrochloride], the inhibition at 5 µM runs as follows: under setting [4], 3.29%; under setting [5], 2.23%; under setting [6], 4.35%.

`CN(C)CCOC(c1ccccc1)c1ccccc1` [Diphenhydramine hydrochloride]: the inhibition at 5 µM is, setting by setting: under setting [16], 2.14%; under setting [17], 1.54%. The “mean (LOPAC_screen_w_protease)” value under setting [7] amounted to 1.841.

`c1ccc2c(c1)[I+]c1ccccc1-2` [Diphenyleneiodonium chloride]: the inhibition at 5 µM (read-out: Replicate_1) amounted to 3.49%, the inhibition at 5 µM (read-out: Replicate_2) was 2.49% and the inhibition at 5 µM (read-out: mean) was 2.99%.

On to `CCCN(CCC)CCc1ccc(O)c(O)c1` [Dipropyldopamine hydrobromide], for which the inhibition at 5 µM under setting [16] was 3.8% and the inhibition at 5 µM under setting [17] was 0.246%. Under setting [7], the “mean (LOPAC_screen_w_protease)” value came out at 2.021.

For `CC(C)N(CCC(C(N)=O)(c1ccccc1)c1ccccn1)C(C)C` (stereo not drawn) [Disopyramide phosphate], the inhibition at 5 µM reads like this: under setting [10], 2.74%; under setting [11], 4.07%; under setting [12], 1.41%.

For `CC(C)N(CCC(C(N)=O)(c1ccccc1)c1ccccn1)C(C)C` (stereo not drawn) [Disopyramide], the inhibition at 5 µM reads like this: under setting [4], 3.48%; under setting [5], 4.56%; under setting [6], 2.4%.

As for `CC(CCc1ccc(O)cc1)NCCc1ccc(O)c(O)c1` (stereo not drawn) [Dobutamine hydrochloride], the inhibition at 5 µM runs as follows: under setting [16], 2.05%; under setting [17], 2.06%. Under setting [7], the “mean (LOPAC_screen_w_protease)” value worked out at 2.053.

`NCCc1ccc(O)c(O)c1` [Dopamine hydrochloride]: the inhibition at 5 µM reads like this: under setting [18], 16.2%; under setting [19], 14.6%; under setting [20], 15.4%.

In the case of `COc1cc2nc(N3CCN(C(=O)C4COc5ccccc5O4)CC3)nc(N)c2cc1OC` (stereo not drawn) [Doxazosin mesylate], the inhibition at 5 µM under setting [16] was 3.96% and the inhibition at 5 µM under setting [17] was -0.00681%. The “mean (LOPAC_screen_w_protease)” value under setting [7] was determined as 1.977.

`CN(C)CCC=C1c2ccccc2COc2ccccc21` [Doxepin hydrochloride]: the inhibition at 5 µM was 1.2% under setting [16] and 1.88% under setting [17]. Also, the “mean (LOPAC_screen_w_protease)” value under setting [21] turned out to be 1.543.

Turning to `C[C@H]1c2cccc(O)c2C(=O)C2=C(O)[C@]3(O)C(=O)C(C(N)=O)=C(O)[C@@H](N(C)C)[C@@H]3[C@@H](O)[C@@H]21` [Doxycycline hydrochloride], the inhibition at 5 µM by setting is: (sheet LOPAC_screen_w_protease, LOPAC1280 primary screen with protease, 5 µM compound, mean of the two replicates, read-out: mean) 4.21%; (sheet LOPAC_screen_w_protease, LOPAC1280 primary screen with protease, 5 µM compound, replicate 1, read-out: Replicate_1) 5.78%; (sheet LOPAC_screen_w_protease, LOPAC1280 primary screen with protease, 5 µM compound, replicate 2, read-out: Replicate_2) 2.65%.

Turning to `CN(C)CCOC(C)(c1ccccc1)c1ccccn1` (stereo not drawn) [Doxylamine succinate], the inhibition at 5 µM (sheet LOPAC_screen_w_protease, LOPAC1280 at 5 µM, mean of two replicates, read-out: mean) was found to be 1.3%; the inhibition at 5 µM (sheet LOPAC_screen_w_protease, LOPAC1280 at 5 µM, replicate 1, read-out: Replicate_1) is 1.58%; the inhibition at 5 µM (sheet LOPAC_screen_w_protease, LOPAC1280 at 5 µM, replicate 2, read-out: Replicate_2) stood at 1.01%.

Take `COc1c2c(nc3ccccc13)OC(C(C)(O)CO)C2` (stereo not drawn) [Dubinidine]: the mean under setting [13] was 2.93. Moreover, the Replicate_1 under setting [14] was 4.833. Besides, under setting [15], the Replicate_2 is listed as 1.026.

For the molecule `CC(C)CC(NC(=O)C1OC1C(=O)O)C(=O)NCCCCNC(=N)N` (stereo not drawn) [E-64], the mean (sheet LOPAC_screen_w_protease, primary screen with protease, 5 µM, mean of two replicates) is reported as 0.2813. The molecule further showed a Replicate_1 (sheet LOPAC_screen_w_protease, primary screen with protease, 5 µM, replicate 1) of 1.4489. For the same molecule, the Replicate_2 (sheet LOPAC_screen_w_protease, primary screen with protease, 5 µM, replicate 2) is listed as -0.8864.

`CCCCCCCCCCCCCCCCCCOCC(COP(=O)([O-])OCC[N+](C)(C)C)OC` (stereo not drawn) [ET-18-OCH3]: the “mean (LOPAC_screen_w_protease)” value under setting [21] is 1.443. The “Replicate_1 (LOPAC_screen_w_protease)” value under setting [8] came to 1.735. The “Replicate_2 (LOPAC_screen_w_protease)” value under setting [9] is 1.151.

In the case of `O=c1c2ccccc2[se]n1-c1ccccc1` [Ebselen, reference compound], the inhibition at 5 µM was determined as 105% under setting [18], 102% under setting [19] and 103% under setting [20].

With `CC[N+](C)(C)c1cccc(O)c1` [Edrophonium chloride], the inhibition at 5 µM (sheet LOPAC_screen_w_protease, primary screen with protease, mean of two replicates, read-out: mean) turned out to be 2.25%; the inhibition at 5 µM (sheet LOPAC_screen_w_protease, primary screen with protease, replicate 1, read-out: Replicate_1) was found to be 5.19%; the inhibition at 5 µM (sheet LOPAC_screen_w_protease, primary screen with protease, replicate 2, read-out: Replicate_2) was -0.704%.
